{"source": "patent US10206902B2", "about": "“Mono- or di-substituted indoles as dengue viral replication inhibitors” (priority 2014, dated 2019)", "key": {"in vitro": {"test": "in vitro", "type": "cell-based", "conditions": "African green monkey, CC50", "method": "In parallel, the toxicity of the compounds was assessed on the same plates. Once the read-out for the eGFP signal was done, 10 μL of resazurin, a cell viability stain, was added to all wells of the 384-well plates. The resazurin assay is based on the reduction of the blue resazurin by NADH, produced by the cells, into the highly fluorescent product, resorufin. The formation of pink fluorescent resorufin is directly related to the number of viable cells in the well. The plates were incubated for an additional 5 hours in a fully humidified incubator (37° C., 5% CO2). Next, the plates were measured on an Infinite reader (Tecan) using an excitation wavelength of 530 nm. The half maximal cytotoxic concentration (CO50) was also determined, defined as the concentration required to reduce the resazurin conversion by 50% compared to that of the cell control wells (Table 1). Finally, the selectivity index (SI) was determined for the compounds, which was calculated as followed: SI=CC50/EC50."}, "DENV-2 16681 strain": {"tested_on": "DENV-2 16681 strain", "test": "DENV-2 antiviral assay (eGFP-labelled virus in Vero cells)", "type": "cell-based, Dengue virus", "conditions": "Dengue virus, DENV2, Vero, 72 h, DENV-2 16681 eGFP, MOI 0.5, 3 days", "method": "The antiviral activity of all the compounds of the invention was tested against DENV-2 16681 strain which was labeled with enhanced green fluorescent protein (eGPF). The culture medium consists of minimal essential medium supplemented with 2% of heat-inactivated fetal calf serum, 0.04% gentamycin (50 mg/mL) and 2 mM of L-glutamine. Vero cells, obtained from ECACC, were suspended in culture medium and 25 μL was added to 384-well plates (2500 cells/well), which already contain the antiviral compounds. Typically, these plates contain a 4-fold serial dilution of 9 dilution steps of the test compound at 200 times the final concentration in 100% DMSO (200 nL). In addition, each compound concentration is tested in quadruplicate (final concentration range: 25 μM-0.00038 μM). Finally, each plate contains wells which are assigned as virus controls (containing cells and virus in the absence of compound), cell controls (containing cells in the absence of virus and compound) and medium controls (containing medium in the absence of cells, virus and compounds). To the wells assigned as medium control, 25 μL of culture medium was added instead of Vero cells. Once the cells were added to the plates, the plates were incubated for 30 minutes at room temperature to allow the cells to distribute evenly within the wells. Next, the plates were incubated in a fully humidified incubator (37° C., 5% CO2) until the next day. Then, DENV-2 strain 16681, labeled with eGFP, was added at a multiplicity of infection (MOI) of 0.5. Therefore, 15 μL of virus suspension was added to all the wells containing test compound and to the wells assigned as virus control. In parallel, 15 μL of culture medium was added to the medium and cell controls. Next, the plates were incubated for 3 days in a fully humidified incubator (37° C., 5% CO2). At the day of the read out, the eGFP fluorescence was measured using an automated fluorescence microscope at 488 nm (blue laser). Using an in-house LIMS system, inhibition dose response curves for each compound were calculated and the half maximal effective concentration (EC50) was determined. Therefore, the percent inhibition (I) for every test concentration is calculated using the following formula: I=100*(ST−SCC)/(SVC−SCC); ST, SCC and SVC are the amount of eGFP signal in the test compound, cell control and virus control wells, respectively. The EC50 represents the concentration of a compound at which the virus replication is inhibited with 50%, as measured by a 50% reduction of the eGFP fluorescent intensity compared to the virus control. The EC50 is calculated using linear interpolation (Table 1)."}}}
{"compound": "COc1cc(NC(C(=O)c2c[nH]c3c(C)cc(F)cc23)c2ccc(F)cc2OC)cc(OCCO)c1", "note": "(racemic) [Compound 9, 2-(4-fluoro-2-methoxyphenyl)-1-(5-fluoro-7-methyl-1H-indol-3-yl)-2-((3-(2-hydroxyethoxy)-5-methoxyphenyl)amino)ethanone]", "values": [{"measurement": "melting point", "result": 179, "unit": "°C"}, {"measurement": "CC50", "setting": "in vitro", "result": 7.5, "unit": "µM"}, {"measurement": "EC50", "setting": "DENV-2 16681 strain", "result": 0.0094, "unit": "µM"}]}
